Experimental data reported in patent publication US10125121B2, “FYN kinase inhibitors” (ROTTAPHARM BIOTECH S.R.L., priority 2015, dated 2018).
pIC50: −log10 of the molar value.

What was measured:
FYN = FYN (Homo sapiens, UniProt P06241); assay: Kinase selectivity panel by Cerep
LYN = LYN (Homo sapiens, UniProt P07948); assay: Kinase selectivity panel by Cerep
FLT-4 = FLT-4 (Homo sapiens, UniProt P35916); assay: Kinase selectivity panel by Cerep; settings: read-out: inhibition of FLT-4
FLT-3 = target: T1, FLT-3 (Homo sapiens, UniProt P36888); assay: Kinase selectivity panel by Cerep; settings: read-out: inhibition of FLT-3
T1 sequence (P36888 27-993): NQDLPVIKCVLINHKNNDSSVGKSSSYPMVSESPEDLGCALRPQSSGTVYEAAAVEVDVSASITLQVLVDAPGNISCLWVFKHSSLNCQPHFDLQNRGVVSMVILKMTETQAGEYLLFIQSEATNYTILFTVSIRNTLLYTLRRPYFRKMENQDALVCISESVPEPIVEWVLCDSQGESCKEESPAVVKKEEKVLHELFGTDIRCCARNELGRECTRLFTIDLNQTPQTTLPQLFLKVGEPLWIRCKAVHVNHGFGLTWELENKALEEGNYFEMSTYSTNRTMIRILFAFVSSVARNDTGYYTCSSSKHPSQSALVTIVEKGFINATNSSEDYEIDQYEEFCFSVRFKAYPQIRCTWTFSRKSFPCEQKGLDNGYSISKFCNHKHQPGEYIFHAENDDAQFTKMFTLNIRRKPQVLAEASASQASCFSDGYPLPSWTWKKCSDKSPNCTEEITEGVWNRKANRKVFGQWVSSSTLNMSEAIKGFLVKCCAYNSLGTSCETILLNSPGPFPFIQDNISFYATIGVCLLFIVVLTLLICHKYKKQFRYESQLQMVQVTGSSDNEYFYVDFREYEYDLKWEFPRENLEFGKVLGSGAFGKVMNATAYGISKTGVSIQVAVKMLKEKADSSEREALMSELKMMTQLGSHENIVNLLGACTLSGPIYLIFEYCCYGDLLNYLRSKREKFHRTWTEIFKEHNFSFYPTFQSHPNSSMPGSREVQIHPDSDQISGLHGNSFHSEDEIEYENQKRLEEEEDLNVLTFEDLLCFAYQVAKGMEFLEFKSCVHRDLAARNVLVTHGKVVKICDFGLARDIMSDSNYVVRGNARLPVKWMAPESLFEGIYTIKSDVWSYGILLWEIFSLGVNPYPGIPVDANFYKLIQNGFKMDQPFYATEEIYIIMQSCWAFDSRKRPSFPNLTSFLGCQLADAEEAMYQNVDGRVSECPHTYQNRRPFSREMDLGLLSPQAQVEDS

[1] = target: active FYN (human recombinant, 62.7 kDa) (Homo sapiens, UniProt P06241); assay: In vitro kinase assay (Z′-LYTE FRET); assay type: biochemical; settings: read-out: IC50(nM) FYN INHIBITION
YES = YES (Homo sapiens, UniProt P07947); assay: Kinase selectivity panel by Cerep
[2] = tested on: remaining kinases examined (standard panel of about 100 human kinase assay); assay: Kinase selectivity panel by Cerep
RET = RET (Homo sapiens, UniProt P07949); assay: Kinase selectivity panel by Cerep; settings: read-out: inhibition of RET
BLK = BLK (Homo sapiens, UniProt P51451); assay: Kinase selectivity panel by Cerep
HCK = HCK (Homo sapiens, UniProt P08631); assay: Kinase selectivity panel by Cerep
CDK2 = CDK2 (Homo sapiens, UniProt P24941); assay: Kinase selectivity panel by Cerep; settings: read-out: inhibition of CDK2
LCK = LCK (Homo sapiens, UniProt P06239); assay: Kinase selectivity panel by Cerep
Sequence of LCK (P06239 whole entry): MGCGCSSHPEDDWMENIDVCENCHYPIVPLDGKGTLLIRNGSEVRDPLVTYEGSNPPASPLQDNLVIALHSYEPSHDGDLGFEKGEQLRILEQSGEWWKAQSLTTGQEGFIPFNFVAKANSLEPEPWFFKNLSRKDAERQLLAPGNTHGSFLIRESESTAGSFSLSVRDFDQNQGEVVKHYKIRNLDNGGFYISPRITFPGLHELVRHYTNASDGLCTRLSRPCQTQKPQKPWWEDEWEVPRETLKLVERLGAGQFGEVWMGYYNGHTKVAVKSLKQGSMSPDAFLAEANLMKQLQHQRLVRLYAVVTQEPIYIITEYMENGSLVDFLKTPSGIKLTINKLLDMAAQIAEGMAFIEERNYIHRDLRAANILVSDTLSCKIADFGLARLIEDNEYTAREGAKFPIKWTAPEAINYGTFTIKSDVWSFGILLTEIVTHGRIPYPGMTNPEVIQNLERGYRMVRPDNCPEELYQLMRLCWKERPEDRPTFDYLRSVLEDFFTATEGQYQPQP

Sequence of FLT-4 (P35916 25-1363): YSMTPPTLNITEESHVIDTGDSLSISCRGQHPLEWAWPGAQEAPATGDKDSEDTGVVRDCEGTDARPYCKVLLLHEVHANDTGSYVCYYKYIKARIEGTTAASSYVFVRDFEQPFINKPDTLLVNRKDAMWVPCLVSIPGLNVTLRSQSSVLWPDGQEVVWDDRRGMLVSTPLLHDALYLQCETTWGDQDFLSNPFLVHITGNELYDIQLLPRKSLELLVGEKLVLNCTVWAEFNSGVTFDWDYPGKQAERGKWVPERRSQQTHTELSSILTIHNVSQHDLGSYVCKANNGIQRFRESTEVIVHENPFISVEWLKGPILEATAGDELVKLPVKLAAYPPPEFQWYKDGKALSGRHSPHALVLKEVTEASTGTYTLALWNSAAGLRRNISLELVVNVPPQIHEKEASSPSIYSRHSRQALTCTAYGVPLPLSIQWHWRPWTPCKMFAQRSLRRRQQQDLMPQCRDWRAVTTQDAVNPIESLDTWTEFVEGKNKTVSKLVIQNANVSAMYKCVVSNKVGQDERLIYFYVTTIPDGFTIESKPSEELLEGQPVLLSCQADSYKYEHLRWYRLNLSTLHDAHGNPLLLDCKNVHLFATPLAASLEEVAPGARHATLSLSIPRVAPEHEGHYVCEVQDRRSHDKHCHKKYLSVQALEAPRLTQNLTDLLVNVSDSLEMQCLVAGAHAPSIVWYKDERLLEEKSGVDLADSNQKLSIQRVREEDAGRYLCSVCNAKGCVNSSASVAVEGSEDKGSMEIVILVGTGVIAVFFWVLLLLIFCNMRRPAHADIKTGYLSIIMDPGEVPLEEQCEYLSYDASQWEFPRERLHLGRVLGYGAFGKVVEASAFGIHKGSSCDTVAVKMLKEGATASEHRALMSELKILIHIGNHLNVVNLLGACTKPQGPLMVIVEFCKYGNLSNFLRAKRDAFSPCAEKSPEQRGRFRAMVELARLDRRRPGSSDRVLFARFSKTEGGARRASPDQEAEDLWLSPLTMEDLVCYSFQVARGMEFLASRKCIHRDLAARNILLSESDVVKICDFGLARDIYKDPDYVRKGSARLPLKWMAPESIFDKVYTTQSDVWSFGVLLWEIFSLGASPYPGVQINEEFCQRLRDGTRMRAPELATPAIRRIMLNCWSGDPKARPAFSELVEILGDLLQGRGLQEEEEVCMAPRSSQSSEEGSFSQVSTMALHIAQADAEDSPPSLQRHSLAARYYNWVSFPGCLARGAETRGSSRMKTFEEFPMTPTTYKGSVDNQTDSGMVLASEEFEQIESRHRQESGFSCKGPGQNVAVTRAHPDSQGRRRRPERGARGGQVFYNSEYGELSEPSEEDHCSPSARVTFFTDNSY
Sequence of BLK (P51451 whole entry): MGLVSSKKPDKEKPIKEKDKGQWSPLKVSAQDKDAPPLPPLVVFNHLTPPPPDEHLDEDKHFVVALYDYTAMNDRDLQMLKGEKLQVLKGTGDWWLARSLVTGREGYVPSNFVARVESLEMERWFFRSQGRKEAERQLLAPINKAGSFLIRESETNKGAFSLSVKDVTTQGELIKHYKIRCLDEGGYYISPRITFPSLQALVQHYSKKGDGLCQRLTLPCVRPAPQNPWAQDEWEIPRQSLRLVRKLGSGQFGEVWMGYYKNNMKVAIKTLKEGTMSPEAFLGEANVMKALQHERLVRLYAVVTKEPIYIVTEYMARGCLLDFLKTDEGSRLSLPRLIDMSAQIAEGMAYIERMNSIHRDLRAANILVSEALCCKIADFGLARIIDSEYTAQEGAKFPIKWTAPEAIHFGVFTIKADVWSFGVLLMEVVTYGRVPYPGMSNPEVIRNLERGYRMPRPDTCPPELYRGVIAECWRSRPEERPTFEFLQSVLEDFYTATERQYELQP
Sequence of FYN (P06241 whole entry): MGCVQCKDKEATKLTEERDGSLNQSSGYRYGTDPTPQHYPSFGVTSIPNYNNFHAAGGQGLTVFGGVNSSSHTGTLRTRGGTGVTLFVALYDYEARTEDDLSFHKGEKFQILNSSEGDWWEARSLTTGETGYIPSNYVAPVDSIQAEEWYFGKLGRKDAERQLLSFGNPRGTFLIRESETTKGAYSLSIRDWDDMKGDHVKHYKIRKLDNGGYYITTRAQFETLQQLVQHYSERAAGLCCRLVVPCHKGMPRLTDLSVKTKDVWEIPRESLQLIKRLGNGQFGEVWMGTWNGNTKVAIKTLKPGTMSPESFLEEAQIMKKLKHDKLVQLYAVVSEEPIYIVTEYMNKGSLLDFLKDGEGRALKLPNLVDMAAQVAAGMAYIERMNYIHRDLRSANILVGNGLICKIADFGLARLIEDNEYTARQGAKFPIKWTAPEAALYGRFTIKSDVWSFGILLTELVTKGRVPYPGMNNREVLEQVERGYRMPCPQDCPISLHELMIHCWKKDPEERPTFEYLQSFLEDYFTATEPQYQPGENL
Sequence of active FYN (human recombinant, 62.7 kDa) (P06241 whole entry): as above
Sequence of LYN (P07948 whole entry): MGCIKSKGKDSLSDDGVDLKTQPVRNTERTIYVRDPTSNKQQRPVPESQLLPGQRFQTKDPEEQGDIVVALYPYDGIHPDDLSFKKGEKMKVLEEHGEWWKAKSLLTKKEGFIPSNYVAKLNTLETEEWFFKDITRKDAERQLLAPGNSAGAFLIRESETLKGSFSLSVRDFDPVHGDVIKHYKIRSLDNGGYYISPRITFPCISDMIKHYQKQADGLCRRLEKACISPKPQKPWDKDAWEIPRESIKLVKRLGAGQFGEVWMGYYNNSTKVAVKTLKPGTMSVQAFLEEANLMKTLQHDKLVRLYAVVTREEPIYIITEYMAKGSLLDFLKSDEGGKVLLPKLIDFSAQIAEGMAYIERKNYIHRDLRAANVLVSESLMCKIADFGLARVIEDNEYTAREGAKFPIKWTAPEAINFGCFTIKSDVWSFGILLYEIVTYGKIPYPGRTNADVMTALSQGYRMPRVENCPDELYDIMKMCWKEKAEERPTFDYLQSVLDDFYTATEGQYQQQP
Sequence of HCK (P08631 whole entry): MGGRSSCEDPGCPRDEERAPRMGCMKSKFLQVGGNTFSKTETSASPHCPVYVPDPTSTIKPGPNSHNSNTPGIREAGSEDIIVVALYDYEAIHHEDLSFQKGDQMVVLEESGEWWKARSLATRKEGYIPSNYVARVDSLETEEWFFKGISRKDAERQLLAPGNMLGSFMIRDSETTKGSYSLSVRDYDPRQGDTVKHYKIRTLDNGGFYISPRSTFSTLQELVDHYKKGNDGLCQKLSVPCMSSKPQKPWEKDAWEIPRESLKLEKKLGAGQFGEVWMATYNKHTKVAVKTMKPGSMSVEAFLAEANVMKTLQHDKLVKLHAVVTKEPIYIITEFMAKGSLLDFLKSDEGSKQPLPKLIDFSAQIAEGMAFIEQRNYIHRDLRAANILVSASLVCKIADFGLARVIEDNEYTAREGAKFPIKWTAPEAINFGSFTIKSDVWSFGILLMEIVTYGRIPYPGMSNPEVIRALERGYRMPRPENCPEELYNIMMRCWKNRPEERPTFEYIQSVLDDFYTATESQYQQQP
Sequence of YES (P07947 whole entry): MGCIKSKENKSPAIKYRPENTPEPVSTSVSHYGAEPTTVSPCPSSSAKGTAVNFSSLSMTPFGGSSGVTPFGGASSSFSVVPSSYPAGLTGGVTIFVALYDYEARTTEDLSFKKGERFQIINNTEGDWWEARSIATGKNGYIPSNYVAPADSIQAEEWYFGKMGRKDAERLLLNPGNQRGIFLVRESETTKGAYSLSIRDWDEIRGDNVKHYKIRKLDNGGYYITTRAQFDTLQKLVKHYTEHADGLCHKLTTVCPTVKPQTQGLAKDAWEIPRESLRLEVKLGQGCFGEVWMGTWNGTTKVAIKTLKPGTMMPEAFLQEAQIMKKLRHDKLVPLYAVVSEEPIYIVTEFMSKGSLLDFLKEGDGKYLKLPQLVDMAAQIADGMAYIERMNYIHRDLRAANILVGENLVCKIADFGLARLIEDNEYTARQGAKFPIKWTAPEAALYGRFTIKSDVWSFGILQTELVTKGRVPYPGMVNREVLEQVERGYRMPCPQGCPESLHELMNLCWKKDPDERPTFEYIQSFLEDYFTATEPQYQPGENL

SMILES: O=C(Nc1ccc(CN2CCN(c3nccc(Nc4cc(C5CC5)[nH]n4)n3)CC2)cc1)c1ccccc1C(F)(F)F [Compound 2, N-(4-((4-(4-((5-cyclopropyl-1H-pyrazol-3-yl)amino)pyrimidin-2-yl)piperazin-1-yl)methyl)phenyl)-2-(trifluoromethyl)-benzamide]
- pIC50 (FYN): 8.05
- pIC50 (LYN): 5.85
- inhibition at 0.1 µM (FLT-4): > 50%
- inhibition at 0.1 µM (FLT-3): > 50%
- IC50 [1]: 9 nM
- pIC50 (YES): 6.57
- effect on more than 70% of the remaining kinases examined [2]: practically ineffective
- inhibition at 0.1 µM (RET): > 50%
- pIC50 (BLK): 6.32
- pIC50 (HCK): 5.49
- inhibition at 0.1 µM (CDK2): > 50%
- pIC50 (LCK): 6.35
